Reference: patent publication US10092517B2, “Gelated microparticle suitable for oral delivery of therapeutic peptides to the lower intestine” (Insucaps Limited, priority 2015, dated 2018)

System: isolated rat colonic mucosae
Test: TEER and Papp of [14C]-mannitol in isolated rat colonic mucosae mounted in Ussing chambers
Type: in vitro ADME
Procedure: Ussing Chambers allow the measurement of transport molecules from the apical side of a section of intestinal tissue (rodent) to the basolateral, thereby simulating passage across the gut wall in vivo. […] Their ability to improve intestinal permeability was testing in isolated rat colonic mucosae by measurement of transepithelial electrical resistance (TEER) and permeability of [14C]-mannitol. The permeability of the marker molecule, radioactively labelled sugar ([C14]-Mannitol) was calculated by scintillation counting.
The transepithelial potential difference (PD, mV) is measured in the open circuit configuration after which the tissue is voltage clamped to zero PD by insertion of the required short circuit current (Isc, μA cm^−2) by means of an automatic voltage clamp (EVC-4000 amplifier, WPI, UK).
Isc and PD are alternatively monitored by switching to open circuit conditions for 3 s every 30 s using a timer (Pro-4, WPI, UK). Analogue data was digitised with a Powerlab® data acquisition unit and analyzed with Chart® software package (AD instruments, UK).
Following an equilibration period of 45 min, baseline PD and Isc are measured and TEER (Ω cm^2) is calculated according to Ohm's law.
Transport of radiolabelled mannitol from the apical chamber to the basolateral chamber was used to measure intestinal permeability.
Following addition of [^14C]-mannitol (0.2 μCi) to the apical chamber flux is monitored periodically over two hours by sampling the serosal chamber (100 μL) every 20 minutes for two hours, and apically (100 μL) at time zero, replenishing with fresh KH buffer at each sampling point.
Samples containing [^14C]-mannitol were mixed with scintillation fluid and read in a scintillation analyzer (Packard Tricarb 2900 TR).
The apparent permeability coefficient (Papp) for mannitol and FD4 is calculated according to the equation; Papp (cm/s)=(dQ/dt) (1/AC0), where dQ/dt is the transport rate (mol/s); A is the surface area of the monolayer (cm^2), and C0 is the initial concentration in the donor compartment (mol/mL).

enhancement of mannitol flux (25 mg Vitamin B12 in encapsulation systems) | Compound | TEER (10, 25 and 50 mg of TCA added to the encapsulation system) | TEER (Vitamin B12 in encapsulation systems, over 2 hours)
 | C[C@H](CCC(=O)NCCS(=O)(=O)O)[C@H]1CC[C@H]2[C@@H]3[C@H](O)C[C@@H]4C[C@H](O)CC[C@]4(C)[C@H]3C[C@H](O)[C@]12C [TCA, taurocholic acid] | reduced TEER | 
11.5 fold | cyanocobalamin [Vitamin B12] |  | significantly reduced TEER
